Values after ≈ are worked out from the molar mass of the structure shown. Active and inactive are the calls of the source. The calls are words filed in the database; no cut-off is given here.
Experiments:
Staphylococcus aureus [1] = assay: Potency index, ratio of MIC for vancomycin to MIC for test compound for antibacterial activity against methicillin-resistant Staphylococcus aureus SR3637; format: functional
Streptococcus pneumoniae [2] = assay: Antibacterial activity against Streptococcus pneumoniae type 1 assessed as inhibition of bacterial growth incubated for 20 hrs by microdilution broth method; format: functional; conditions: type 1, 20 h
Enterococcus faecium [3] = assay: Antibacterial activity against Enterococcus faecium SR16972 assessed as inhibition of bacterial growth incubated for 20 hrs by microdilution broth method; format: functional; conditions: SR16972, 20 h
L1210 = assay: Cytotoxicity in mouse L1210 cells assessed as reduction in cell viability; format: cell-based
Staphylococcus aureus [4] = assay: Antibacterial activity against methicillin-resistant Staphylococcus aureus SR3637 assessed as inhibition of bacterial growth incubated for 20 hrs by microdilution broth method; format: functional; conditions: SR3637, 20 h
Staphylococcus aureus [5] = assay: Potency index, ratio of MIC for telavancin to MIC for test compound for antibacterial activity against methicillin-resistant Staphylococcus aureus SR3637; format: functional
P388 = assay: Cytotoxicity in mouse P388 cells assessed as reduction in cell viability; format: cell-based
Staphylococcus aureus [6] = assay: Antibacterial activity against Staphylococcus aureus SMITH assessed as inhibition of bacterial growth incubated for 20 hrs by microdilution broth method; format: functional
Escherichia coli [7] = assay: Induction of morphological changes in Escherichia coli JC2 assessed as inflation of bacterial cell body; format: functional, organism-based
Enterococcus faecium [8] = assay: Antibacterial activity against Vancomycin-resistant Enterococcus faecium SR23598 (VanB) assessed as inhibition of bacterial growth incubated for 20 hrs by microdilution broth method; format: functional; conditions: SR23598, 20 h
Klebsiella pneumoniae = assay: Antibacterial activity against Klebsiella pneumoniae SR1 assessed as inhibition of bacterial growth incubated for 20 hrs by microdilution broth method; format: functional; conditions: SR1, 20 h
Staphylococcus aureus [9] = assay: Induction of morphological changes in Staphylococcus aureus RN4220 assessed as inflation of bacterial cell body; format: functional, organism-based
Staphylococcus aureus [10] = assay: Antibacterial activity against Vancomycin-resistant Staphylococcus aureus HIP11714 assessed as inhibition of bacterial growth incubated for 20 hrs by microdilution broth method; format: functional; conditions: HIP11714, 20 h
Enterococcus faecium [11] = assay: Antibacterial activity against Vancomycin-resistant Enterococcus faecium SRM1101 (c_VanB) assessed as inhibition of bacterial growth incubated for 20 hrs by microdilution broth method; format: functional; conditions: SRM1101, 20 h
Enterococcus faecalis [12] = assay: Antibacterial activity against Enterococcus faecalis SR1004 assessed as inhibition of bacterial growth incubated for 20 hrs by microdilution broth method; format: functional; conditions: SR1004, 20 h
Streptococcus pneumoniae [13] = assay: Antibacterial activity against Streptococcus pneumoniae SR11031 (PRSP) assessed as inhibition of bacterial growth incubated for 20 hrs by microdilution broth method; format: functional; conditions: SR11031, 20 h
Escherichia coli [14] = assay: Antibacterial activity against Escherichia coli JC2 assessed as inhibition of bacterial growth incubated for 20 hrs by microdilution broth method; format: functional; conditions: JC2, 20 h
Enterococcus faecalis [15] = assay: Antibacterial activity against Vancomycin-resistant Enterococcus faecalis SR23630 (VanB) assessed as inhibition of bacterial growth incubated for 20 hrs by microdilution broth method; format: functional; conditions: SR23630, 20 h
Enterococcus faecalis [16] = assay: Antibacterial activity against Vancomycin-resistant Enterococcus faecalis SR7914 (VanA) assessed as inhibition of bacterial growth incubated for 20 hrs by microdilution broth method; format: functional; conditions: SR7914, 20 h
Staphylococcus aureus [17] = assay: Potency index, ratio of MIC for linezolid to MIC for test compound for antibacterial activity against methicillin-resistant Staphylococcus aureus SR3637; format: functional
Enterococcus faecium [18] = assay: Antibacterial activity against Vancomycin-resistant Enterococcus faecium SR7940 (VanA) assessed as inhibition of bacterial growth incubated for 20 hrs by microdilution broth method; format: functional; conditions: SR7940, 20 h
Staphylococcus aureus [19] = assay: Antibacterial activity against Vancomycin-resistant Staphylococcus aureus HIP11983 assessed as inhibition of bacterial growth incubated for 20 hrs by microdilution broth method; format: functional; conditions: HIP11983, 20 h
Staphylococcus aureus [20] = assay: Antibacterial activity against Staphylococcus aureus RN4220 assessed as inhibition of bacterial growth incubated for 20 hrs by microdilution broth method; format: functional; conditions: RN4220, 20 h
Streptococcus pneumoniae [21] = assay: Antibacterial activity against Streptococcus pneumoniae tupelo (VTSP) assessed as inhibition of bacterial growth incubated for 20 hrs by microdilution broth method; format: functional

Compound	MIC (Streptococcus pneumoniae [2]) [µg/mL]	MIC (Enterococcus faecium [3]) [µg/mL]	MIC (Staphylococcus aureus [4]) [µg/mL]	MIC (Staphylococcus aureus [6]) [µg/mL]	MIC (Enterococcus faecium [8]) [µg/mL]	MIC (Klebsiella pneumoniae) [µg/mL]	MIC (Staphylococcus aureus [10]) [µg/mL]	MIC (Enterococcus faecium [11]) [µg/mL]	MIC (Enterococcus faecalis [12]) [µg/mL]	MIC (Streptococcus pneumoniae [13]) [µg/mL]	MIC (Escherichia coli [14]) [µg/mL]	MIC (Enterococcus faecalis [15]) [µg/mL]	MIC (Enterococcus faecalis [16]) [µg/mL]	MIC (Enterococcus faecium [18]) [µg/mL]	MIC (Staphylococcus aureus [19]) [µg/mL]	MIC (Staphylococcus aureus [20]) [µg/mL]	MIC (Streptococcus pneumoniae [21]) [µg/mL]	other results
CCCCCC/C=C\CCCCC[C@@H]1C[C@H]1/C=C/C(O)C(=O)N[C@H](C(=O)N(C)[C@@H](CC(=O)O)C(=O)N(COC(C)(CC)C(NC(=O)C(NC(=O)[C@@H](N)CC(=O)O)C(O)C(O)CNC(=N)N)C(=O)NCC(=O)N[C@@H](CO)C(=O)O)[C@@]12C[C@@H]1CN(C(=N)N)C2=O)[C@H](O)C(=O)O (stereo partly drawn)	≤ 0.004	0.004 (≈ 0.00302 µM)	0.008 (≈ 0.00604 µM)	0.004 (≈ 0.00302 µM)	0.004 (≈ 0.00302 µM)	1 (≈ 0.754 µM)	0.004 (≈ 0.00302 µM)	0.004 (≈ 0.00302 µM)	0.008 (≈ 0.00604 µM)	≤ 0.004	4 (≈ 3.02 µM)	0.004 (≈ 0.00302 µM)	0.016 (≈ 0.0121 µM)	0.004 (≈ 0.00302 µM)	0.004 (≈ 0.00302 µM)	0.004 (≈ 0.00302 µM)	≤ 0.004	Ratio (Staphylococcus aureus [1]): 125 - 250; IC50 (L1210): > 12.5 µg/mL; Ratio (Staphylococcus aureus [5]): 125 - 250; IC50 (P388): > 12.5 µg/mL; Activity (Escherichia coli [7]): Active; Activity (Staphylococcus aureus [9]): Active; Ratio (Staphylococcus aureus [17]): 125 - 250
CCCCCCCCCCNCCN[C@@]1(C)C[C@H](O[C@H]2[C@H](Oc3c4cc5cc3Oc3ccc(cc3Cl)[C@@H](O)[C@@H](NC(=O)[C@@H](CC(C)C)NC)C(=O)N[C@@H](CC(N)=O)C(=O)N[C@H]5C(=O)N[C@H]3C(=O)N[C@H](C(=O)N[C@H](C(=O)O)c5cc(O)c(CNCP(=O)(O)O)c(O)c5-c5cc3ccc5O)[C@H](O)c3ccc(c(Cl)c3)O4)O[C@H](CO)[C@@H](O)[C@@H]2O)O[C@@H](C)[C@H]1O [TELAVANCIN]	≤ 0.063	0.5 (≈ 0.285 µM)	1 (≈ 0.57 µM)	0.5 (≈ 0.285 µM)	0.5 (≈ 0.285 µM)	–	4 (≈ 2.28 µM)	8 (≈ 4.56 µM)	1 (≈ 0.57 µM)	≤ 0.063	–	1 (≈ 0.57 µM)	4 (≈ 2.28 µM)	8 (≈ 4.56 µM)	4 (≈ 2.28 µM)	0.5 (≈ 0.285 µM)	≤ 0.063	–
CCCCCC/C=C\CCCCC[C@@H]1C[C@H]1/C=C/C(O)C(=O)N[C@H](C(=O)N(C)[C@@H](CC(=O)O)C(=O)N(COC(C)(CC)C(NC(=O)C(NC(=O)[C@@H](N)CC(=O)O)C(O)C(O)CNC(=N)N)C(=O)NCC(=O)N[C@@H](CO)C(=O)O)[C@@]12C[C@@H]1CNC2=O)[C@H](O)C(=O)O (stereo partly drawn)	0.25 (≈ 0.195 µM)	4 (≈ 3.12 µM)	1 (≈ 0.779 µM)	0.5 (≈ 0.39 µM)	1 (≈ 0.779 µM)	2 (≈ 1.56 µM)	0.5 (≈ 0.39 µM)	1 (≈ 0.779 µM)	> 64	0.25 (≈ 0.195 µM)	4 (≈ 3.12 µM)	> 64	> 64	2 (≈ 1.56 µM)	1 (≈ 0.779 µM)	0.5 (≈ 0.39 µM)	≤ 0.004	–
CN[C@H](CC(C)C)C(=O)N[C@H]1C(=O)N[C@@H](CC(N)=O)C(=O)N[C@H]2C(=O)N[C@H]3C(=O)N[C@H](C(=O)N[C@H](C(=O)O)c4cc(O)cc(O)c4-c4cc3ccc4O)[C@H](O)c3ccc(c(Cl)c3)Oc3cc2cc(c3O[C@@H]2O[C@H](CO)[C@@H](O)[C@H](O)[C@H]2O[C@H]2C[C@](C)(N)[C@H](O)[C@H](C)O2)Oc2ccc(cc2Cl)[C@H]1O [VANCOMYCIN]	0.5 (≈ 0.345 µM)	–	–	–	> 64	> 64	> 64	> 64	1 (≈ 0.69 µM)	0.25 (≈ 0.173 µM)	> 64	32 (≈ 22.1 µM)	> 64	> 64	> 64	–	0.25 (≈ 0.173 µM)	–
CC(=O)NC[C@H]1CN(c2ccc(N3CCOCC3)c(F)c2)C(=O)O1 [LINEZOLID]	–	2 (≈ 5.93 µM)	–	–	2 (≈ 5.93 µM)	–	–	2 (≈ 5.93 µM)	–	–	–	–	–	2 (≈ 5.93 µM)	–	–	–	–

Source: ChEMBL document CHEMBL4602723, “Stalobacin: Discovery of Novel Lipopeptide Antibiotics with Potent Antibacterial Activity against Multidrug-Resistant Bacteria” (J Med Chem, 2020)
